Data set [1] has as its system SKOV-3 human ovarian tumor cells. The data set can be described thus: Survival of SKOV-3 ovarian tumor mice after intraperitoneal treatment. The class given is in vivo, athymic (nu/nu) mice. As to conditions: 73-day period following implantation; i.p. injection twenty days after implantation (108.7 μCi for ^166Ho groups). As for the experimental part:
An additional 14 SKOV-3 ovarian tumor mice received no treatment and served as the control group.
Statistical analyses were performed to compare the fraction of mice that survived over the course of the 73-day period following implantation. […] FIG. 6.

Data set [2] concerns NSCLC A549-luc-c8 cells. The experiment in a line: Biodistribution after intravenous injection in NSCLC A549-luciferase tumor-bearing mice. The class given is in vivo, athymic (nu/nu) mice. The note with it: one week after i.v. injection, 300 μCi (Example 14 particles). How it is done:
NSCLC A549-luciferase tumor-bearing mice were prepared by injecting approximately one million NSCLC A549-luc-c8 cells into the lung parenchyma of athymic (nu/nu) mice. Implantation and tumor progression were monitored by detecting luciferase bioluminescence following luciferin injections. FIG. 15A.

Data set [3] has as its system SKOV-3 human ovarian tumor cells. As to conditions: mouse, in vivo, ip.
Experimental: SKOV-3 ovarian tumor mice were prepared by injecting approximately 7×10^6 SKOV-3 human ovarian tumor cells into the peritoneal cavity of athymic (nu/nu) mice. Following a two-month incubation period, magnetic resonance imaging (MRI) was used to visualize the resultant tumors.
Biodistribution studies were performed 24 hours after injection by removing various organs from the mice and quantifying the ^166Ho content of each organ using a 2470 Wizard Automatic Gamma Counter (PerkinElmer Inc., Waltham, Mass.).

`CC(=O)C=C(C)[O][166Ho]([O]C(C)=CC(C)=O)[O]C(C)=CC(C)=O` [^166Ho(AcAc)3] yielded a surviving animals in data set [1] of 66.7%. Besides, the “^166Ho in tumors, percent initial dose per gram” value in data set [2] is “not retained”; in data set [3], 15.4±2.7 % ID/g.
